{
  "source": "patent US5096901A",
  "about": "“Pharmacologically active amides and esters containing an azabicycloalkane moiety” (John Wyeth & Brother Limited, priority 1989, dated 1992)",
  "molecular_target": "T1, 5-HT3 receptors (Rattus norvegicus, UniProt P35563)",
  "T1 sequence (P35563 24-483)": "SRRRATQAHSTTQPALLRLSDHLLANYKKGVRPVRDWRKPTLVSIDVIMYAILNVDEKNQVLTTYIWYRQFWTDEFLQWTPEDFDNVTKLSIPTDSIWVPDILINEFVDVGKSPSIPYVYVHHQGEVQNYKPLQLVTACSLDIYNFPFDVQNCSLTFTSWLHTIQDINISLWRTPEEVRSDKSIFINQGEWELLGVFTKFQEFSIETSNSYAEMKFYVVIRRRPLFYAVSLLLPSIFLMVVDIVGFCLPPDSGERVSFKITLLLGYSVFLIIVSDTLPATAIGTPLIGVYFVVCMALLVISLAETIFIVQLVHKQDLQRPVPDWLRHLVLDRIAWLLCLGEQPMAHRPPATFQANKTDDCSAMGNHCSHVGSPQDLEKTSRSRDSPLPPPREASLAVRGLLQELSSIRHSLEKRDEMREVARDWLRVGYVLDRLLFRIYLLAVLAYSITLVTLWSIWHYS",
  "method": "The compounds of the invention are tested for 5-HT3 antagonistic activity in the rat vagus by the following procedure:\nSegments of the vagus nerve from Sprague-Dawley rats were placed in a perspex chamber and perfused with Krebs solution. Electrodes, positioned at either end of the nerve segment, were used to record the potential differences which ensued upon the addition of various concentrations of 5-HT to one end of the nerve segment. Concentration-response curves to 5-HT were obtained in this manner prior to and following equilibration of the nerve segment with Krebs solution containing the test-substance.",
  "data": [
    {"molecule": "CN1[C@@H]2CC[C@H]1C[C@@H](NC(=O)c1cn(C)c3ccccc3c1=O)C2", "note": "[Example 1, (Endo)-N-(8-methyl-8-azabicyclo [3.2.1]octan-3-yl)-1,4-dihydro-1-methyl-4-oxoquinoline-3-carboxamide]", "values": [
      {"measurement": "Kb", "value": 3.98, "unit": "nM"}
    ]}
  ]
}
